Assay results: article PMC12736255, “Reinvestigating Pyrrol-2-One-Based Compounds: From Antimicrobial Agents to Promising Antitumor Candidates” (Pharmaceuticals, 2025)

Columns and labels:
Experiment in all cases: NCI-60 single-dose screen
Type in all cases: cell-based
OVCAR-3 = conditions: Homo sapiens; OVCAR-3, 10^–5 M; read-out: GI (%)
Outline: (§1)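 Compounds were tested at a single concentration of 10^−5 M against the NCI panel of 60 human tumor cell lines covering leukemia, melanoma, lung, colon, CNS, ovarian, renal, prostate and breast cancers.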

NCI/ADR-RES = conditions: Homo sapiens, 10^–5 M, read-out: GI (%)
Outline: as §1

HT-29 = conditions: Homo sapiens; HT-29, 10^–5 M; read-out: GI (%)
Outline: as §1

KM12 = conditions: Homo sapiens; KM12, 10^–5 M; read-out: GI (%)
Outline: as §1

HS 578T = conditions: Homo sapiens, 10^–5 M, read-out: GI (%)
Outline: as §1

MDA-MB-231/ATCC = conditions: Homo sapiens, 10^–5 M, read-out: GI (%)
Outline: as §1

SNB-75 = conditions: Homo sapiens; SNB-75, 10^–5 M; read-out: GI (%)
Outline: as §1

OVCAR-8 = conditions: Homo sapiens; OVCAR-8, 10^–5 M; read-out: GI (%)
Outline: as §1

COLO205 = conditions: Homo sapiens, COLO 205; COLO205, 10^–5 M; read-out: GI (%)
Outline: as §1

K-562 = conditions: Homo sapiens, K562; K-562, 10^–5 M; read-out: GI (%)
Outline: as §1

RPMI-8226 = conditions: Homo sapiens; RPMI-8226, 10^–5 M; read-out: GI (%)
Outline: as §1

UACC-257 = conditions: Homo sapiens; UACC-257, 10^–5 M; read-out: GI (%)
Outline: as §1

SNB-19 = conditions: Homo sapiens; SNB-19, 10^–5 M; read-out: GI (%)
Outline: as §1

OVCAR-4 = conditions: Homo sapiens; OVCAR-4, 10^–5 M; read-out: GI (%)
Outline: as §1

SR = conditions: Homo sapiens, 10^–5 M, read-out: GI (%)
Outline: as §1

OVCAR-5 = conditions: Homo sapiens; OVCAR-5, 10^–5 M; read-out: GI (%)
Outline: as §1

M14 = conditions: Homo sapiens; M14, 10^–5 M; read-out: GI (%)
Outline: as §1

LOX IMVI = conditions: Homo sapiens, 10^–5 M, read-out: GI (%)
Outline: as §1

NCI-H460 = conditions: Homo sapiens; NCI-H460, 10^–5 M; read-out: GI (%)
Outline: as §1

A549/ATCC = conditions: Homo sapiens, 10^–5 M, read-out: GI (%)
Outline: as §1

SK-OV-3 = conditions: Homo sapiens; SK-OV-3, 10^–5 M; read-out: GI (%)
Outline: as §1

T-47D = conditions: Homo sapiens, T47D, 10^–5 M, read-out: GI (%)
Outline: as §1

HCT-15 = conditions: Homo sapiens; HCT-15, 10^–5 M; read-out: GI (%)
Outline: as §1

786-0 = conditions: Homo sapiens; 786-0, 10^–5 M; read-out: GI (%)
Outline: as §1

NCI-H522 = conditions: Homo sapiens; NCI-H522, 10^–5 M; read-out: GI (%)
Outline: as §1

ACHN = conditions: Homo sapiens, 10^–5 M, read-out: GI (%)
Outline: as §1

UACC-62 = conditions: Homo sapiens; UACC-62, 10^–5 M; read-out: GI (%)
Outline: as §1

PC-3 = conditions: Homo sapiens, PC-3, PC-3, 10^–5 M; read-out: GI (%)
Outline: as §1

HL-60(TB) = conditions: Homo sapiens, 10^–5 M, read-out: GI (%)
Outline: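 Each compound is applied at 10^−5 M to human tumor lines of the NCI-60 panel, which spans nine cancer types including melanoma, renal, CNS and ovarian.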

CAKI-1 = conditions: Homo sapiens; CAKI-1, 10^–5 M; read-out: GI (%)
Outline: as §1

IGROV1 = conditions: Homo sapiens, IGROV-1; IGROV1, 10^–5 M; read-out: GI (%)
Outline: as §1

SK-MEL-5 = conditions: Homo sapiens; SK-MEL-5, 10^–5 M; read-out: GI (%)
Outline: as §1

NCI-H322M = conditions: Homo sapiens, 10^–5 M, read-out: GI (%)
Outline: as §1

SF-539 = conditions: Homo sapiens; SF-539, 10^–5 M; read-out: GI (%)
Outline: as §1

HOP-92 = conditions: Homo sapiens; HOP-92, 10^–5 M; read-out: GI (%)
Outline: as §1

HCT-116 = conditions: Homo sapiens; HCT-116, 10^–5 M; read-out: GI (%)
Outline: as §1

CCRF-CEM = conditions: Homo sapiens, 10^–5 M, read-out: GI (%)
Outline: as §1

NCI-H23 = conditions: Homo sapiens; NCI-H23, 10^–5 M; read-out: GI (%)
Outline: as §1

With `O=C1C(Nc2ccc(I)cc2)=CC(c2ccc3c(c2)OCO3)N1c1ccc(I)cc1` (centres unmarked) [3n] the inhibition at 10 µM (OVCAR-3) was 10%, the inhibition at 10 µM (NCI/ADR-RES) was 0% and the inhibition at 10 µM (HT-29) was 5%. It also gave an inhibition at 10 µM (KM12) of 19%, an inhibition at 10 µM (HS 578T) of 25% and an inhibition at 10 µM (MDA-MB-231/ATCC) of 0%. For the same compound, the inhibition at 10 µM (SNB-75) was 20%, the inhibition at 10 µM (OVCAR-8) was 0% and the inhibition at 10 µM (COLO205) was 5%. For the same compound, the inhibition at 10 µM (K-562) was 6%, the inhibition at 10 µM (RPMI-8226) was 20% and the inhibition at 10 µM (UACC-257) was 0%. For the same compound, the inhibition at 10 µM (SNB-19) was 5%, the inhibition at 10 µM (OVCAR-4) was 14% and the inhibition at 10 µM (SR) was 27%. It also gave an inhibition at 10 µM (OVCAR-5) of 0%, an inhibition at 10 µM (M14) of 5% and an inhibition at 10 µM (LOX IMVI) of 10%. For the same compound, the inhibition at 10 µM (NCI-H460) was 3%, the inhibition at 10 µM (A549/ATCC) was 15% and the inhibition at 10 µM (SK-OV-3) was 13%. It also gave an inhibition at 10 µM (T-47D) of 22%, an inhibition at 10 µM (HCT-15) of 9% and an inhibition at 10 µM (786-0) of 9%. For the same compound, the inhibition at 10 µM (NCI-H522) was 26%, the inhibition at 10 µM (ACHN) was 0% and the inhibition at 10 µM (UACC-62) was 0%. It also gave an inhibition at 10 µM (PC-3) of 1%, an inhibition at 10 µM (HL-60(TB)) of 16% and an inhibition at 10 µM (CAKI-1) of 16%. It also gave an inhibition at 10 µM (IGROV1) of 5%, an inhibition at 10 µM (SK-MEL-5) of 1% and an inhibition at 10 µM (NCI-H322M) of 3%. The inhibition at 10 µM (SF-539) was 87%, the inhibition at 10 µM (HOP-92) was 4% and the inhibition at 10 µM (HCT-116) was 9%. The inhibition at 10 µM (CCRF-CEM) was 3% and the inhibition at 10 µM (NCI-H23) was 18%.
